Experimental data taken from ChEMBL document CHEMBL3885861, “Open TG-GATES”.

Species on record: Rattus norvegicus
Experiment: Open TG-GATES - Regimen: Single
Assay type: toxicity, organism-based, Sprague-Dawley
Design: regimen Single, gender Male, age 6 weeks
Conditions: in vivo, iv, route intravenous injection; for KIDNEY_L / KIDNEY_R / KIDNEY_TOTAL: tissue Kidney; for LIVER: tissue Liver
[1] = 1 mg/kg, 3 h, tissue Blood, dose level Low
[2] = 1 mg/kg, 3 h, tissue Plasma, dose level Low
[3] = 1 mg/kg, 6 h, tissue Blood, dose level Low
[4] = 1 mg/kg, 6 h, tissue Plasma, dose level Low
[5] = 1 mg/kg, 9 h, tissue Blood, dose level Low
[6] = 1 mg/kg, 9 h, tissue Plasma, dose level Low
[7] = 1 mg/kg, 24 h, tissue Blood, dose level Low
[8] = 1 mg/kg, 24 h, tissue Plasma, dose level Low

## COc1cccc2c1C(=O)c1c(O)c3c(c(O)c1C2=O)C[C@@](O)(C(=O)CO)C[C@@H]3O[C@H]1C[C@H](N)[C@H](O)[C@H](C)O1 [DOXORUBICIN]
1 mg/kg, 3 h, dose level Low
  TERMINAL_BW: 214.5 g
  KIDNEY_L: 0.9 g
  KIDNEY_R: 0.9 g
  KIDNEY_TOTAL: 1.9 g
  LIVER: 9.4 g
[1]
  Bas: 0%
  Eos: 1%
  Fbg: 272 mg/dL
  Hb: 13.4 g/dL
  Ht: 38.5%
  Lym: 77%
  MCH: 21.8 pg
  MCHC: 34.8%
  MCV: 62.7 fL
  Mono: 3%
  PT: 16.4 s
  Plat: 126.6 x10_4/uL
  RBC: 614.2 x10_4/ul
  Ret: 6.6%
[2]
  ALP: 1599.2 IU/L
  ALT: 44 IU/L
  AST: 86.6 IU/L
  CRE: 0.2 mg/dL
  DBIL: 0.002 mg/dL
  GLC: 185.4 mg/dL
  K: 4.2 meq/L
  Na: 142.4 meq/L
  RALB: 2.9 g/dL
  TBIL: 0.018 mg/dL
  TC: 67.8 mg/dL
  TG: 81 mg/dL
  TP: 5.1 g/dL
  gamma-GTP: 1.6 IU/L
1 mg/kg, 6 h, dose level Low
  TERMINAL_BW: 211.5 g
  KIDNEY_L: 1 g
  KIDNEY_R: 1 g
  KIDNEY_TOTAL: 1.9 g
  LIVER: 8.9 g
[3]
  Bas: 0%
  Eos: 0.4%
  Fbg: 292.8 mg/dL
  Hb: 13 g/dL
  Ht: 38.2%
  Lym: 79.4%
  MCH: 21.9 pg
  MCHC: 34.2%
  MCV: 64 fL
  Mono: 3.4%
  PT: 15.9 s
  Plat: 117.6 x10_4/uL
  RBC: 598.8 x10_4/ul
  Ret: 7%
[4]
  ALP: 1586.4 IU/L
  ALT: 43.4 IU/L
  AST: 78.8 IU/L
  CRE: 0.1 mg/dL
  DBIL: 0 mg/dL
  GLC: 172 mg/dL
  K: 4.2 meq/L
  Na: 140.6 meq/L
  RALB: 2.9 g/dL
  TBIL: 0.022 mg/dL
  TC: 71.8 mg/dL
  TG: 62.6 mg/dL
  TP: 5.2 g/dL
  gamma-GTP: 1.6 IU/L
1 mg/kg, 9 h, dose level Low
  TERMINAL_BW: 206.4 g
  KIDNEY_L: 0.9 g
  KIDNEY_R: 0.9 g
  KIDNEY_TOTAL: 1.8 g
  LIVER: 8.1 g
[5]
  Bas: 0%
  Eos: 1%
  Fbg: 286.2 mg/dL
  Ht: 38.8%
  Lym: 74.8%
  MCH: 21.3 pg
  MCHC: 34.3%
  MCV: 62.3 fL
  Mono: 3%
  Neu: 20.4%
  PT: 16.4 s
  Plat: 115.3 x10_4/uL
  RBC: 624 x10_4/ul
  Ret: 6.7%
[6]
  ALP: 1211 IU/L
  AST: 73.4 IU/L
  CRE: 0.1 mg/dL
  DBIL: 0 mg/dL
  GLC: 180 mg/dL
  K: 4.2 meq/L
  LDH: 136.6 IU/L
  Na: 140.2 meq/L
  RALB: 3 g/dL
  TBIL: 0.02 mg/dL
  TC: 67.8 mg/dL
  TG: 52.6 mg/dL
  TP: 5.3 g/dL
  gamma-GTP: 1.2 IU/L
1 mg/kg, 24 h, dose level Low
  TERMINAL_BW: 218.4 g
  KIDNEY_L: 0.9 g
  KIDNEY_R: 1 g
  KIDNEY_TOTAL: 1.9 g
[7]
  Bas: 0%
  Eos: 0.8%
  Fbg: 307.6 mg/dL
  Ht: 37.2%
  Lym: 83.2%
  MCH: 21.6 pg
  MCHC: 35.8%
  MCV: 60.4 fL
  Mono: 3.4%
  PT: 16.7 s
  Plat: 116 x10_4/uL
  RBC: 617.4 x10_4/ul
  Ret: 6.2%
[8]
  ALP: 1436.4 IU/L
  AST: 68.2 IU/L
  CRE: 0.2 mg/dL
  DBIL: 0.002 mg/dL
  GLC: 191.8 mg/dL
  K: 4.3 meq/L
  Na: 142.4 meq/L
  RALB: 3 g/dL
  TBIL: 0.024 mg/dL
  TC: 75.2 mg/dL
  TG: 102.4 mg/dL
  TP: 5.6 g/dL
  gamma-GTP: 1.4 IU/L
3 mg/kg, 3 h, dose level Middle
  TERMINAL_BW: 212.4 g
3 mg/kg, 3 h, tissue Blood, dose level Middle
  Bas: 0%
